Results as given in US8026219B2, “Antimicrobial linear peptides” (Universitat de Girona, priority 2006, dated 2011).
Starred links: 1 amine or outer side, 2 acyl side, 3 side chain; linkers in the order of their positions; H or OH if unused. Non-standard residues stand in square brackets, D forms with d. Residues, ends and D or L forms follow the SMILES beside them. No end group written: not given here. *: point of attachment. X1 = O=C([C@H](Cc1c[nH]c2ccccc12)N(Cc1ccccc1)[*:1])[*:2]; Tos = Cc1ccc(S(=O)(=O)*)cc1; Bz = O=C(c1ccccc1)*

Columns and labels:
[1] = test system: Erwinia amylovora PMV6076; assay: Minimum inhibitory concentration (MIC), microbial growth by optical density; assay type: cell-based; settings: 48 h incubation at 25° C., TSB medium
Protocol: (§1) Each experiment was performed twice.

[2] = test system: Pseudomonas syringae EPS94; assay: as above; assay type: cell-based; settings: 48 h incubation at 25° C., TSB medium
Protocol: as §1

[3] = test system: erythrocytes from fresh human blood; settings: 5% erythrocytes, 1 h at 37° C., relative to 200 μM melittin; for % Haemolysis 50 μM: 50 μM peptide; for % Haemolysis 150 μM: 150 μM peptide; for % Haemolysis 250 μM: 250 μM peptide
Protocol: A description of the methodology used to determine the haemolytic activity is found in Oren et al, Biochemistry, 2000, 39, 6103-6114, and in Raguse et al., J. Am. Chem. Soc., 2002, 124, 12774-12785.
The haemolytic activity of the peptides of the invention was evaluated by determining the release of haemoglobin which is produced on placing in contact a solution of the peptides with a suspension of erythrocytes 5% by volume, from fresh human blood.
The blood was collected aseptically using a Vactainer® K2E system (Belliver, Great Britain) with EDTA and it was stored at 4° C. for a period lower than 2 hours.
The blood was centrifuged at 6000 g for 5 minutes to separate the erythrocytes. There were washed three times with TRIS buffer (10 mM TRIS, 150 mM NaCl, pH 7.2) and they were resuspended in TRIS buffer until obtaining a suspension which contained 10% by volume of erythrocytes.
The peptides were solubilized in TRIS buffer until a final concentration of 100, 300 and 500 μM
The replicas were used for each peptide and concentration.
65 μl of 10% erythrocyte suspension was mixed with 65 μl of the peptide solution in each well of a 96-well plate (Micro-Amp®, Applied Biosystems, USA) (5% by volume of erythrocytes) and the mixture was incubated for 1 h at 37° C. under stirring. In this way, the erythrocyte suspensions were subjected to peptide concentrations of 50, 150 and 250 μM.
Next, the plates were centrifuged at 3500 g during 10 minutes and aliquots were transferred of 80 μl of supernatant to microplates with 100 wells (Bioscreen), which were diluted with 80 μl of milli-Q water.
The degree of haemolysis was determined from the absorbance at 540 nm with a Bioscreen plate reader.
The complete positive haemolysis control was determined in a TRIS buffer solution which contained 200 μM melittin (Sigma-Aldrich, Spain)
The percentage of haemolysis (H) was determined using the following equation: H=100×[Op−Ob)/(Om−Ob)]
Where OP as the optical density measured for a determined peptide concentration, Ob was the optical density of the buffer solution, and Om was the optical density for the positive control with melittin.

[4] = test system: Xanthomonas vesicatori 2133-2; assay: Minimum inhibitory concentration (MIC), microbial growth by optical density; settings: 48 h incubation at 25° C., TSB medium
Protocol: All the bacteria were stored at a temperature of −80° C. in Luria-Bertani (LB) medium supplemented with 20% glycerine in volume/volume.
In all cases they were resuspended in sterile water to obtain a suspension adjusted to an absorbance of 0.2 to 60 nm, which approximately corresponds to 10^8 colony forming units.
To determine the minimum inhibitory concentration (MIC), the peptides were solubilized in milli-Q sterile water until a final concentration of 1000 μM and they were filtered through a 0.22 μm pore size filter.
Dilutions of the peptides of the invention were made to obtained solutions at the concentrations of 750, 500, 250, 200, 150, 125, 100, 75, 50 and 25 μM.
20 μl of each dilution were mixed with 20 μl of the suspension of the corresponding bacterial indicator, and 160 μl of the TSB (Trypticase Soy Broth) liquid medium until a total volume of 200 μl in each well of a microplate.
Two replicas were carried out for each strain, concentration and peptide under study.
The positive controls contained water instead of peptide, and the negative controls contained the peptides without the bacterial suspension.
The microbial growth was determined automatically by optical density at 600 nm using the Microbiology Analyser Bioscreen C (Labsystems)
The microplates were incubated at 25° C. for 48 hours with stirring for 20 seconds before measuring the absorbance every hour. Each experiment was performed twice.

Row | Molecule | range of concentrations including the MIC, E. amylovora [1] | range of concentrations including the MIC, P. syringae [2] | % Haemolysis 50 μM [3] | % Haemolysis 150 μM [3] | % Haemolysis 250 μM [3] | range of concentrations including the MIC, X. vesicatoria [4]
1 | CC[C@H](C)[C@H](NC(=O)[C@H](CCCCN)NC(=O)[C@H](CCCCN)NC(=O)[C@H](Cc1ccccc1)NC(=O)[C@H](CC(C)C)NC(=O)[C@H](CCCCN)NC(=O)[C@H](Cc1ccc(O)cc1)NS(=O)(=O)c1ccc(C)cc1)C(=O)N[C@@H](CC(C)C)C(=O)N[C@@H](CCCCN)C(=O)N[C@@H](CCCCN)C(=O)N[C@@H](CC(C)C)C(N)=O [BP121] (Tos-YKLFKKILKKL-NH2) | >7.5 µM | 2.5 to 5 µM | 22% | 81% | 86% | 2.5 to 5 µM
2 | CC[C@H](C)[C@H](NC(=O)[C@H](CCCCN)NC(=O)[C@H](CCCCN)NC(=O)[C@H](Cc1ccccc1)NC(=O)[C@H](CC(C)C)NC(=O)[C@H](CCCCN)NC(=O)[C@H](CCCCN)NS(=O)(=O)c1ccc(C)cc1)C(=O)N[C@@H](CC(C)C)C(=O)N[C@@H](CCCCN)C(=O)N[C@@H](Cc1ccc(O)cc1)C(=O)N[C@@H](CC(C)C)C(N)=O [BP102] | 5 to 7.5 µM | 2.5 to 5 µM | 39% | 79% | 80% | <2.5 µM
3 | Ac-YKLFKKILKKL-NH2 [BP120] | >7.5 µM | 5 to 7.5 µM | – | – | – | 5 to 7.5 µM
4 | CC[C@H](C)[C@H](NC(=O)[C@H](CCCCN)NC(=O)[C@H](CCCCN)NC(=O)[C@H](Cc1ccccc1)NC(=O)[C@H](CC(C)C)NC(=O)[C@H](CCCCN)NC(=O)[C@H](Cc1c[nH]c2ccccc12)NCc1ccccc1)C(=O)N[C@@H](CC(C)C)C(=O)N[C@@H](CCCCN)C(=O)N[C@H](C(=O)N[C@@H](CC(C)C)C(N)=O)C(C)C [BP011] (H-[X1]KLFKKILKVL-NH2) | 5 to 7.5 µM | 5 to 7.5 µM | 81% | 96% | 100% | 2.5 to 5 µM
5 | CC[C@H](C)[C@H](NC(=O)[C@H](CCCCN)NC(=O)[C@H](CCCCN)NC(=O)[C@H](Cc1ccccc1)NC(=O)[C@H](CC(C)C)NC(=O)[C@H](CCCCN)NC(=O)[C@H](CCCCN)NS(=O)(=O)c1ccc(C)cc1)C(=O)N[C@@H](CC(C)C)C(=O)N[C@@H](CCCCN)C(=O)N[C@@H](Cc1c[nH]c2ccccc12)C(=O)N[C@@H](CC(C)C)C(N)=O [BP054] (Tos-KKLFKKILKWL-NH2) | >7.5 µM | 5 to 7.5 µM | – | – | – | <2.5 µM
6 | Ac-WKLFKKILKWL-NH2 [BP038] | >7.5 µM | >7.5 µM | 80% | 86% | 80% | <2.5 µM
7 | CC[C@H](C)[C@H](NC(=O)[C@H](CCCCN)NC(=O)[C@H](CCCCN)NC(=O)[C@H](Cc1ccccc1)NC(=O)[C@H](CC(C)C)NC(=O)[C@H](CCCCN)NC(=O)[C@H](CC(C)C)NS(=O)(=O)c1ccc(C)cc1)C(=O)N[C@@H](CC(C)C)C(=O)N[C@@H](CCCCN)C(=O)N[C@@H](Cc1c[nH]c2ccccc12)C(=O)N[C@@H](CC(C)C)C(N)=O [BP059] (Tos-LKLFKKILKWL-NH2) | >7.5 µM | >7.5 µM | – | – | – | 2.5 µM
8 | CC[C@H](C)[C@H](NC(=O)[C@H](CCCCN)NC(=O)[C@H](CCCCN)NC(=O)[C@H](Cc1ccccc1)NC(=O)[C@H](CC(C)C)NC(=O)[C@H](CCCCN)NC(=O)[C@H](Cc1ccc(O)cc1)NS(=O)(=O)c1ccc(C)cc1)C(=O)N[C@@H](CC(C)C)C(=O)N[C@@H](CCCCN)C(=O)N[C@@H](Cc1ccc(O)cc1)C(=O)N[C@@H](CC(C)C)C(N)=O [BP097] | >7.5 µM | >7.5 µM | 83% | 81% | 88% | <2.5 µM
9 | CC[C@H](C)[C@H](NC(=O)[C@H](CCCCN)NC(=O)[C@H](CCCCN)NC(=O)[C@H](Cc1ccccc1)NC(=O)[C@H](CC(C)C)NC(=O)[C@H](CCCCN)NC(=O)[C@@H](N)CCCCN)C(=O)N[C@@H](CC(C)C)C(=O)N[C@@H](CCCCN)C(=O)N[C@@H](Cc1c[nH]c2ccccc12)C(=O)N[C@@H](CC(C)C)C(N)=O [BP017] | >7.5 µM | 5 to 7.5 µM | – | – | – | 5 to 7.5 µM
10 | CC[C@H](C)[C@H](NC(=O)[C@H](CCCCN)NC(=O)[C@H](CCCCN)NC(=O)[C@H](Cc1ccccc1)NC(=O)[C@H](CC(C)C)NC(=O)[C@H](CCCCN)NC(=O)[C@H](CCCCN)NS(=O)(=O)c1ccc(C)cc1)C(=O)N[C@@H](CC(C)C)C(=O)N[C@@H](CCCCN)C(=O)N[C@@H](Cc1ccccc1)C(=O)N[C@@H](CC(C)C)C(N)=O [BP078] | 5 to 7.5 µM | 5 to 7.5 µM | 40% | 85% | 95% | <2.5 µM
11 | CC[C@H](C)[C@H](NC(=O)[C@H](CCCCN)NC(=O)[C@H](CCCCN)NC(=O)[C@H](Cc1ccccc1)NC(=O)[C@H](CC(C)C)NC(=O)[C@H](CCCCN)NC(=O)[C@H](CCCCN)NC(=O)c1ccccc1)C(=O)N[C@@H](CC(C)C)C(=O)N[C@@H](CCCCN)C(=O)N[C@H](C(=O)N[C@@H](CC(C)C)C(N)=O)C(C)C [BP031] | 2.5 to 5 µM | 5 to 7.5 µM | 34% | 71% | 76% | <2.5 µM
12 | Ac-KKLFKKILKVL-NH2 [BP029] | 5 to 7.5 µM | 5 to 7.5 µM | – | – | – | 7.5 µM
13 | YKLFKKILKKL-NH2 [BP119] | – | – | 4% | 19% | 45% | –
14 | LKLFKKILKKL-NH2 [BP128] | – | – | 2% | 31% | 66% | –
15 | CC[C@H](C)[C@H](NC(=O)[C@H](CCCCN)NC(=O)[C@H](CCCCN)NC(=O)[C@H](Cc1ccccc1)NC(=O)[C@H](CC(C)C)NC(=O)[C@H](CCCCN)NC(=O)[C@H](CCCCN)NC(C)=O)C(=O)N[C@@H](CC(C)C)C(=O)N[C@@H](CCCCN)C(=O)N[C@@H](CCCCN)C(=O)N[C@@H](CC(C)C)C(N)=O [BP124] | – | – | 1% | 5% | 23% | –
16 | CC[C@H](C)[C@H](NC(=O)[C@H](CCCCN)NC(=O)[C@H](CCCCN)NC(=O)[C@H](Cc1ccccc1)NC(=O)[C@H](CC(C)C)NC(=O)[C@H](CCCCN)NC(=O)[C@H](CCCCN)NC(=O)c1ccccc1)C(=O)N[C@@H](CC(C)C)C(=O)N[C@@H](CCCCN)C(=O)N[C@@H](Cc1c[nH]c2ccccc12)C(=O)N[C@@H](CC(C)C)C(N)=O [BP055] (Bz-KKLFKKILKWL-NH2) | >7.5 µM | >7.5 µM | – | – | – | <2.5 µM
17 | CC[C@H](C)[C@H](NC(=O)[C@H](CCCCN)NC(=O)[C@H](CCCCN)NC(=O)[C@H](Cc1ccccc1)NC(=O)[C@H](CC(C)C)NC(=O)[C@H](CCCCN)NC(=O)[C@H](Cc1ccc(O)cc1)NC(C)=O)C(=O)N[C@@H](CC(C)C)C(=O)N[C@@H](CCCCN)C(=O)N[C@@H](Cc1ccc(O)cc1)C(=O)N[C@@H](CC(C)C)C(N)=O [BP096] | – | – | 47% | 86% | 85% | –
